Values joined by “and” are separate entries in the source; they are usually repeats but may differ in a detail not shown here. Identical values can stand only once.
Assay: molar heat capacity at constant volume
Details: Fluid (supercritical or subcritical phases), Vacuum adiabatic calorimetry

FC(F)C(F)(F)F [pentafluoroethane]
Details	molar heat capacity at constant volume
350 K, Mass density=585.7 kg/m3	121.87 J/K/mol and 115.26 J/K/mol
350 K, Mass density=688.6 kg/m3	121.82 J/K/mol
350 K, Mass density=774 kg/m3	115.87 J/K/mol
350 K, Mass density=882.7 kg/m3	111.2 J/K/mol
350 K, Mass density=975 kg/m3	106.81 J/K/mol and 108.22 J/K/mol
350 K, Mass density=1076.5 kg/m3	105.51 J/K/mol and 105.75 J/K/mol
351 K, Mass density=403.4 kg/m3	114.03 J/K/mol
351 K, Mass density=503 kg/m3	115.42 J/K/mol
351 K, Mass density=585.7 kg/m3	123.23 J/K/mol and 114 J/K/mol
351 K, Mass density=688.6 kg/m3	119.91 J/K/mol
351 K, Mass density=773.9 kg/m3	114.06 J/K/mol
351 K, Mass density=882.7 kg/m3	110.25 J/K/mol
351 K, Mass density=974.9 kg/m3	106.01 J/K/mol and 107.36 J/K/mol
351 K, Mass density=1076.4 kg/m3	105.26 J/K/mol and 105.57 J/K/mol
352 K, Mass density=403.5 kg/m3	110.23 J/K/mol
352 K, Mass density=503 kg/m3	114.08 J/K/mol
352 K, Mass density=585.7 kg/m3	123.57 J/K/mol and 113.02 J/K/mol
352 K, Mass density=688.6 kg/m3	117.02 J/K/mol
352 K, Mass density=773.9 kg/m3	113.16 J/K/mol
352 K, Mass density=882.6 kg/m3	108.96 J/K/mol
352 K, Mass density=974.8 kg/m3	106.96 J/K/mol and 107.86 J/K/mol
352 K, Mass density=1076.3 kg/m3	105.75 J/K/mol and 105.23 J/K/mol
353 K, Mass density=403.5 kg/m3	109.29 J/K/mol
353 K, Mass density=503 kg/m3	114.32 J/K/mol
353 K, Mass density=585.7 kg/m3	120.99 J/K/mol and 113.07 J/K/mol
353 K, Mass density=688.5 kg/m3	116.8 J/K/mol
353 K, Mass density=773.8 kg/m3	113.56 J/K/mol
353 K, Mass density=882.5 kg/m3	110.9 J/K/mol
353 K, Mass density=974.7 kg/m3	107.31 J/K/mol and 108.33 J/K/mol
353 K, Mass density=1076.2 kg/m3	106.21 J/K/mol and 105.67 J/K/mol
354 K, Mass density=403.6 kg/m3	113.22 J/K/mol
354 K, Mass density=503 kg/m3	115.36 J/K/mol
354 K, Mass density=585.7 kg/m3	119.21 J/K/mol and 111.24 J/K/mol
354 K, Mass density=688.5 kg/m3	117.18 J/K/mol
354 K, Mass density=773.8 kg/m3	113.7 J/K/mol
354 K, Mass density=882.5 kg/m3	112.32 J/K/mol
354 K, Mass density=974.6 kg/m3	107.07 J/K/mol and 107.84 J/K/mol
354 K, Mass density=1076.1 kg/m3	105.5 J/K/mol and 106.64 J/K/mol
355 K, Mass density=403.6 kg/m3	113.06 J/K/mol
355 K, Mass density=503 kg/m3	114.26 J/K/mol
355 K, Mass density=585.7 kg/m3	121.17 J/K/mol and 110.25 J/K/mol
355 K, Mass density=688.5 kg/m3	116.52 J/K/mol
355 K, Mass density=773.7 kg/m3	113.14 J/K/mol
355 K, Mass density=882.4 kg/m3	110.04 J/K/mol
355 K, Mass density=974.6 kg/m3	106.63 J/K/mol and 107.29 J/K/mol
355 K, Mass density=1076 kg/m3	104.47 J/K/mol and 105.31 J/K/mol
356 K, Mass density=403.6 kg/m3	111.13 J/K/mol
356 K, Mass density=503 kg/m3	114 J/K/mol
356 K, Mass density=585.7 kg/m3	121.39 J/K/mol and 110.52 J/K/mol
356 K, Mass density=688.4 kg/m3	115.44 J/K/mol
356 K, Mass density=773.7 kg/m3	112.56 J/K/mol
356 K, Mass density=882.4 kg/m3	109.83 J/K/mol
356 K, Mass density=974.5 kg/m3	106.76 J/K/mol and 106.98 J/K/mol
356 K, Mass density=1075.9 kg/m3	105.59 J/K/mol and 105.04 J/K/mol
357 K, Mass density=403.6 kg/m3	111.14 J/K/mol
357 K, Mass density=503 kg/m3	114.3 J/K/mol
357 K, Mass density=585.6 kg/m3	111.96 J/K/mol
357 K, Mass density=585.7 kg/m3	119.54 J/K/mol
357 K, Mass density=688.4 kg/m3	115.72 J/K/mol
357 K, Mass density=773.7 kg/m3	114.08 J/K/mol
357 K, Mass density=882.3 kg/m3	111.13 J/K/mol
357 K, Mass density=974.4 kg/m3	107.52 J/K/mol and 108.27 J/K/mol
357 K, Mass density=1075.8 kg/m3	106.52 J/K/mol and 106.05 J/K/mol
358 K, Mass density=403.6 kg/m3	111.56 J/K/mol
358 K, Mass density=503 kg/m3	112.47 J/K/mol
358 K, Mass density=585.6 kg/m3	118.73 J/K/mol and 110.52 J/K/mol
358 K, Mass density=688.4 kg/m3	115.42 J/K/mol
358 K, Mass density=773.6 kg/m3	113.91 J/K/mol
358 K, Mass density=882.2 kg/m3	110.62 J/K/mol
358 K, Mass density=974.3 kg/m3	107.37 J/K/mol and 108.93 J/K/mol
358 K, Mass density=1075.7 kg/m3	105.71 J/K/mol and 106.8 J/K/mol
359 K, Mass density=403.6 kg/m3	112.17 J/K/mol
359 K, Mass density=503 kg/m3	112.71 J/K/mol
359 K, Mass density=585.6 kg/m3	120.73 J/K/mol and 110.01 J/K/mol
359 K, Mass density=688.3 kg/m3	114.6 J/K/mol
359 K, Mass density=773.6 kg/m3	112.66 J/K/mol
359 K, Mass density=882.2 kg/m3	109.41 J/K/mol
359 K, Mass density=974.3 kg/m3	106.84 J/K/mol and 107.68 J/K/mol
359 K, Mass density=1075.6 kg/m3	105.11 J/K/mol and 106.04 J/K/mol
360 K, Mass density=403.6 kg/m3	111.06 J/K/mol
360 K, Mass density=503 kg/m3	113.85 J/K/mol
360 K, Mass density=585.6 kg/m3	119.64 J/K/mol and 111.46 J/K/mol
360 K, Mass density=688.3 kg/m3	115.44 J/K/mol
360 K, Mass density=773.5 kg/m3	113.01 J/K/mol
360 K, Mass density=882.1 kg/m3	109.1 J/K/mol
360 K, Mass density=974.2 kg/m3	106.66 J/K/mol and 107.71 J/K/mol
360 K, Mass density=1075.5 kg/m3	106.19 J/K/mol and 105.87 J/K/mol
361 K, Mass density=403.6 kg/m3	110.42 J/K/mol
361 K, Mass density=503 kg/m3	112.26 J/K/mol
361 K, Mass density=585.6 kg/m3	116.41 J/K/mol and 111.57 J/K/mol
361 K, Mass density=688.3 kg/m3	115.6 J/K/mol
361 K, Mass density=773.5 kg/m3	113.86 J/K/mol
361 K, Mass density=882.1 kg/m3	110.89 J/K/mol
361 K, Mass density=974.1 kg/m3	107.11 J/K/mol and 108.37 J/K/mol
361 K, Mass density=1075.4 kg/m3	106.59 J/K/mol
362 K, Mass density=403.6 kg/m3	109.78 J/K/mol
362 K, Mass density=503 kg/m3	111.4 J/K/mol
362 K, Mass density=585.6 kg/m3	117.98 J/K/mol and 110.73 J/K/mol
362 K, Mass density=688.2 kg/m3	115.95 J/K/mol
362 K, Mass density=773.4 kg/m3	112.71 J/K/mol
362 K, Mass density=882 kg/m3	110.8 J/K/mol
362 K, Mass density=974 kg/m3	107.3 J/K/mol and 108.22 J/K/mol
362 K, Mass density=1075.3 kg/m3	106.09 J/K/mol
363 K, Mass density=403.6 kg/m3	109.94 J/K/mol
363 K, Mass density=503 kg/m3	114.16 J/K/mol
363 K, Mass density=585.5 kg/m3	120.74 J/K/mol and 110.36 J/K/mol
363 K, Mass density=688.2 kg/m3	116.44 J/K/mol
363 K, Mass density=773.4 kg/m3	110.53 J/K/mol
363 K, Mass density=881.9 kg/m3	110.61 J/K/mol
363 K, Mass density=974 kg/m3	106.41 J/K/mol and 108.02 J/K/mol
363 K, Mass density=1075.2 kg/m3	106.37 J/K/mol
364 K, Mass density=403.6 kg/m3	111.1 J/K/mol
364 K, Mass density=503 kg/m3	113.42 J/K/mol
364 K, Mass density=585.5 kg/m3	119.4 J/K/mol and 109.88 J/K/mol
364 K, Mass density=688.2 kg/m3	114.69 J/K/mol
364 K, Mass density=773.3 kg/m3	110.71 J/K/mol
364 K, Mass density=881.9 kg/m3	110.79 J/K/mol
364 K, Mass density=973.9 kg/m3	106.7 J/K/mol and 108.1 J/K/mol
364 K, Mass density=1075.1 kg/m3	106.31 J/K/mol
365 K, Mass density=403.6 kg/m3	108.67 J/K/mol
365 K, Mass density=503 kg/m3	111.49 J/K/mol
365 K, Mass density=585.5 kg/m3	117.96 J/K/mol and 110.02 J/K/mol
365 K, Mass density=688.1 kg/m3	115.26 J/K/mol

Source: the NIST ThermoML archive (doi:10.1021/je0501843)
